This is an account of results in US11667602B2, “Compounds and their use” (AstraZeneca AB, priority 2020, dated 2023).

The structures appear in SMILES notation.

The target of this assay is T1, human RXFP1 (Homo sapiens, UniProt Q9HBX9).
T1 sequence (Q9HBX9 1-757): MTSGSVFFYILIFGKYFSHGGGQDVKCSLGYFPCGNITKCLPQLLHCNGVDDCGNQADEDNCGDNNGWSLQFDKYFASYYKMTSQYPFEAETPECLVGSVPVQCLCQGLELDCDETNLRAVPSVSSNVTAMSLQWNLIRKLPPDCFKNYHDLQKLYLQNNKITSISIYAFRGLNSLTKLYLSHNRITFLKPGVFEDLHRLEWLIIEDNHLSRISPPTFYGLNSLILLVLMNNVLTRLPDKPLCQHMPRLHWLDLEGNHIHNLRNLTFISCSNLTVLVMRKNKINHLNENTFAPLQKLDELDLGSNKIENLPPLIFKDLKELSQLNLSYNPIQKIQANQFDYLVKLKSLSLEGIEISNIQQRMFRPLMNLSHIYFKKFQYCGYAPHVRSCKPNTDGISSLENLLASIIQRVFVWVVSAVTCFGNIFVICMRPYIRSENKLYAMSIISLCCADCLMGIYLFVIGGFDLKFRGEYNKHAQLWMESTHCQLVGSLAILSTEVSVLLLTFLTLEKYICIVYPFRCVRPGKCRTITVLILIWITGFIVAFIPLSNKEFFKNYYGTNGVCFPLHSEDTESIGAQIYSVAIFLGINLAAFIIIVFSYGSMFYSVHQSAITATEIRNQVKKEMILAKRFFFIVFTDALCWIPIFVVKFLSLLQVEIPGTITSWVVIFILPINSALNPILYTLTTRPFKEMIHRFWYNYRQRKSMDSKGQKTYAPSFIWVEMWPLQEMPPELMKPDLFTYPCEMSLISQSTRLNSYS
In words: RXFP1 Hu cAMP (Test A). Format: cell-based. Also noted: expressed in transfected cells; host or cells: Jump-In T-REx CHO-K1 cells (ThermoFisher), induced with 10 ng/ml doxycycline for 24 h. Conditions: RXFP1 Hu cAMP; for EC50: read-out: Test A EC50. In short, it runs like this:
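Cells: CHO-K1 stably carrying human RXFP1, expressed after 24 h 10 ng/ml doxycycline; 0.5 mM IBMX final, HTRF detection after 2 h at room temperature.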

`COc1cc(F)c(OC2CC(CC(=O)O)C2)cc1C(=O)NC1C2CCC(C2)C1C(=O)Nc1cccc(S(=O)(=O)C(F)(F)F)c1` [Example 474, 2-((1R,3r)-3-(2-Fluoro-4-methoxy-5-(((1R,2R,3S,4S)-3-((3-((trifluoromethyl)sulfonyl)phenyl)carbamoyl)bicyclo[2.2.1]heptan-2-yl)carbamoyl)phenoxy)cyclobutyl)acetic acid]: the “Test A Sinf” value is recorded as 118% and the EC50 (usually the concentration at which the effect is half-maximal) stood at 650 nM.

For the compound `COc1cc(F)c(O[C@H]2C[C@@H](CC(=O)O)C2)cc1C(=O)N[C@@H]1[C@@H]2CC[C@@H](C2)[C@@H]1C(=O)Nc1cccc(S(=O)(=O)C(F)(F)F)c1` [Example 475, 2-((1S,3s)-3-(2-Fluoro-4-methoxy-5-(((1R,2R,3S,4S)-3-((3-((trifluoromethyl)sulfonyl)phenyl)carbamoyl)bicyclo[2.2.1]heptan-2-yl)carbamoyl)phenoxy)cyclobutyl)acetic acid], the “Test A Sinf” value stood at 100% and the EC50 amounted to 200 nM.

For `COc1cc(F)c(OC2CCC(C)(CC(=O)O)CC2)cc1C(=O)NC1C2CCC(C2)C1C(=O)NCC1(C)CCC1` [Example 476, 2-((1S,4s)-4-(2-Fluoro-4-methoxy-5-(((1S,2R,3S,4R)-3-(((1-methylcyclobutyl)methyl)carbamoyl)bicyclo[2.2.1]heptan-2-yl)carbamoyl)phenoxy)-1-methylcyclohexyl)acetic acid], the “Test A Sinf” value turned out to be 81% and the EC50 was found to be 300 nM.

Consider `COc1cc(F)c(O[C@H]2CC[C@](C)(CC(=O)O)CC2)cc1C(=O)N[C@@H]1[C@H]2CC[C@H](C2)[C@@H]1C(=O)NCC1(C)CCC1` [Example 477, 2-((1R,4r)-4-(2-Fluoro-4-methoxy-5-(((1S,2R,3S,4R)-3-(((1-methylcyclobutyl)methyl)carbamoyl)bicyclo[2.2.1]heptan-2-yl)carbamoyl)phenoxy)-1-methylcyclohexyl)acetic acid], for which the “Test A Sinf” value was found to be 84%.

Consider `COC[C@]1(C(=O)O)CC[C@@H](Oc2cc(C(=O)N[C@@H]3[C@@H]4CC[C@@H](C4)[C@@H]3C(=O)Nc3cccc(S(=O)(=O)C(F)(F)F)c3)c(OC)cc2F)CC1` [Example 479], for which the “Test A Sinf” value stood at 104% and the EC50 stood at 7.8 nM.

Turning to `COC[C@]1(C(=O)O)CC[C@H](Oc2cc(C(=O)N[C@@H]3[C@@H]4CC[C@@H](C4)[C@@H]3C(=O)Nc3cccc(S(=O)(=O)C(F)(F)F)c3)c(OC)cc2F)CC1` [Example 480], the “Test A Sinf” value is 100% and the EC50 is 98 nM.

In the case of `COC[C@]1(C(=O)O)CC[C@@H](Oc2cc(C(=O)N[C@@H]3[C@H]4CC[C@H](C4)[C@@H]3C(=O)NCC(C)(C)C)c(OC)cc2F)CC1` [Example 481], the “Test A Sinf” value was determined as 96%.

`COc1cc(C#N)c(Oc2ccc(C(=O)O)cc2)cc1C(=O)N[C@@H]1[C@H]2CC[C@H](C2)[C@@H]1C(=O)NCC1(C)CCC1` [Example 483]: the “Test A Sinf” value was 92% and the EC50 came to 610 nM.

Consider `COC(=O)[C@]1(C(=O)O)CC[C@@H](Oc2cc(C(=O)N[C@@H]3[C@H]4CC[C@H](C4)[C@@H]3C(=O)NCC3(C)CCC3)c(OC(C)C)cc2F)CC1` [Example 485, (1R,4r)-4-(2-Fluoro-4-isopropoxy-5-(((1S,2R,3S,4R)-3-(((1-methylcyclobutyl)methyl)carbamoyl)bicyclo[2.2.1]heptan-2-yl)carbamoyl)phenoxy)-1-(methoxycarbonyl)cyclohexane-1-carboxylic acid], for which the “Test A Sinf” value amounted to 95%.

`COc1cc(F)c(O[C@H]2CC[C@@H](C(=O)O)CC2)cc1C(=O)N[C@H]1[C@@H](C(=O)Nc2ccc(F)c(S(=O)(=O)C(F)(F)F)c2)[C@@H]2C=C[C@H]1C2` [Example 489]: the “Test A Sinf” value came out at 115% and the EC50 came to 12 nM.

On to `COc1cc(F)c(O[C@H]2CC[C@@H](C(=O)O)CC2)cc1C(=O)N[C@@H]1[C@@H]2C[C@@H]([C@@H](O)[C@H]2O)[C@@H]1C(=O)Nc1cccc(S(=O)(=O)C(F)(F)F)c1` [Example 494], for which the “Test A Sinf” value is 90% and the concentration giving a half-maximal response (EC50) was determined as 6900 nM.
